Results from ChEMBL document CHEMBL1773033, “Cyclic lactam hybrid α-MSH/Agouti-related protein (AGRP) analogues with nanomolar range binding affinities at the human melanocortin receptors” (Bioorg Med Chem Lett, 2011).
Positions of bridges follow the written chain, without caps; N, C: chain ends. Non-standard residues stand in square brackets, D forms with d. Residues, ends and D or L forms follow the SMILES beside them.

How the values were obtained:
Melanocortin receptor 3 [1] = target: T1, Melanocortin receptor 3 (Homo sapiens, UniProt P41968); assay: Displacement of [125I]-NDP-alpha-MSH from human MC3R expressed in HEK293 cells after 40 mins by Wallac 1470 gamma counting; format: cell-based
T1 sequence (P41968 whole entry): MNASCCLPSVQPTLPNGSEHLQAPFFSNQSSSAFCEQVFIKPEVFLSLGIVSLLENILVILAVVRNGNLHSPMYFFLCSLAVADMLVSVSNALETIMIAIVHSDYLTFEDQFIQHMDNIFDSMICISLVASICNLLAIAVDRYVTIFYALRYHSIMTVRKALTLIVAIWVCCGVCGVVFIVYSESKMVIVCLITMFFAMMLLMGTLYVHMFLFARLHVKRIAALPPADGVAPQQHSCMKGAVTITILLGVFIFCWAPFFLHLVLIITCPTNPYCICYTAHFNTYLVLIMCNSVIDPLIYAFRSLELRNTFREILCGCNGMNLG

Melanocortin receptor 5 [2] = target: T2, Melanocortin receptor 5 (Homo sapiens, UniProt P33032); assay: Displacement of [125I]-NDP-alpha-MSH from human MC5R expressed in HEK293 cells at 10 uM after 40 mins by Wallac 1470 gamma counting relative to Ac-Nle-c[Asp-His-D-Phe-Arg-Trp-Lys]-NH2; format: cell-based
T2 sequence (P33032 whole entry): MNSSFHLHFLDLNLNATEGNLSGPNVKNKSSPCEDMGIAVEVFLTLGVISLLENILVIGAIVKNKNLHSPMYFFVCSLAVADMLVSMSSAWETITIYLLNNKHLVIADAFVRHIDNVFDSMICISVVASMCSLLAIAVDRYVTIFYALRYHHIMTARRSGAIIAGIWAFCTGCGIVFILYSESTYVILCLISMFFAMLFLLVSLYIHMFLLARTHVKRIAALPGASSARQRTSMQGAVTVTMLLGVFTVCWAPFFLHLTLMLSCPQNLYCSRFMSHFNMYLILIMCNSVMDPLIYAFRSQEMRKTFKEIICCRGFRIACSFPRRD

Melanocortin receptor 3 [3] = target: T1, Melanocortin receptor 3; assay: Agonist activity at human MC3R expressed in HEK293 cells assessed as increase in intracellular cAMP level at 10 uM after 3 mins by luminescence counter relative to Ac-Nle-c[Asp-His-D-Phe-Arg-Trp-Lys]-NH2; format: functional, cell-based
[4] = target: T3, Melanocyte-stimulating hormone receptor (Homo sapiens, UniProt Q01726); assay: Displacement of [125I]-NDP-alpha-MSH from human MC1R expressed in HEK293 cells at 10 uM after 40 mins by Wallac 1470 gamma counting relative to Ac-Nle-c[Asp-His-D-Phe-Arg-Trp-Lys]-NH2; format: cell-based
Target sequence in this assay (Q01726 whole entry, looked up): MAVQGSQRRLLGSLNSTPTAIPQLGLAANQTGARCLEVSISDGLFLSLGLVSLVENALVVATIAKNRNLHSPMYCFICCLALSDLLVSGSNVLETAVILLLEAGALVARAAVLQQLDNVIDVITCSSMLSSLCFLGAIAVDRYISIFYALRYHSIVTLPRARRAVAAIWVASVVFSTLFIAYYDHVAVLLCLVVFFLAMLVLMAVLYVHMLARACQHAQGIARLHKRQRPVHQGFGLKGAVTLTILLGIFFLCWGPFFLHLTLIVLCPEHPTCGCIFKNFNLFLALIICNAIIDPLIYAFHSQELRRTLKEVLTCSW

[5] = target: T3, Melanocyte-stimulating hormone receptor; assay: Agonist activity at human MC1R expressed in HEK293 cells assessed as increase in intracellular cAMP accumulation; format: functional, cell-based
Target sequence in this assay (Q01726 whole entry): as the sequence (Q01726 whole entry, looked up) above

Melanocortin receptor 3 [6] = target: T1, Melanocortin receptor 3; assay: Displacement of [125I]-NDP-alpha-MSH from human MC3R expressed in HEK293 cells at 10 uM after 40 mins by Wallac 1470 gamma counting relative to Ac-Nle-c[Asp-His-D-Phe-Arg-Trp-Lys]-NH2; format: cell-based
Melanocortin receptor 5 [7] = target: T2, Melanocortin receptor 5; assay: Agonist activity at human MC5R expressed in HEK293 cells assessed as increase in intracellular cAMP level at 10 uM after 3 mins by luminescence counter relative to Ac-Nle-c[Asp-His-D-Phe-Arg-Trp-Lys]-NH2; format: functional, cell-based
Melanocortin receptor 4 [8] = target: T4, Melanocortin receptor 4 (Homo sapiens, UniProt P32245); assay: Displacement of [125I]-NDP-alpha-MSH from human MC4R expressed in HEK293 cells at 10 uM after 40 mins by Wallac 1470 gamma counting relative to Ac-Nle-c[Asp-His-D-Phe-Arg-Trp-Lys]-NH2; format: cell-based
T4 sequence (P32245 whole entry): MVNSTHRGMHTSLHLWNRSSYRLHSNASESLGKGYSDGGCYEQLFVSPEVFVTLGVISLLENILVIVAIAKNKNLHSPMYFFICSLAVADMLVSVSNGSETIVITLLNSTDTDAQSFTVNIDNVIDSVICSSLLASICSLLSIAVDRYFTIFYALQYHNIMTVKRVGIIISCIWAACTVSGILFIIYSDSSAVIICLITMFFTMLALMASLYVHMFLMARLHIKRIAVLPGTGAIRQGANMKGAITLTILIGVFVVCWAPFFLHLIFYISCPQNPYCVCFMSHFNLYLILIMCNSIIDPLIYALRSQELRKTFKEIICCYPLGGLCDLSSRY

Melanocortin receptor 3 [9] = target: T1, Melanocortin receptor 3; assay: Agonist activity at human MC3R expressed in HEK293 cells assessed as intracellular cAMP accumulation; format: functional, cell-based
Melanocortin receptor 4 [10] = target: T4, Melanocortin receptor 4; assay: Agonist activity at human MC4R expressed in HEK293 cells assessed as increase in intracellular cAMP level at 10 uM after 3 mins by luminescence counter relative to Ac-Nle-c[Asp-His-D-Phe-Arg-Trp-Lys]-NH2; format: functional, cell-based
Melanocortin receptor 4 [11] = target: T4, Melanocortin receptor 4; assay: Displacement of [125I]-NDP-alpha-MSH from human MC4R expressed in HEK293 cells after 40 mins by Wallac 1470 gamma counting; format: cell-based
[12] = target: T3, Melanocyte-stimulating hormone receptor; assay: Displacement of [125I]-NDP-alpha-MSH from human MC1R expressed in HEK293 cells after 40 mins by Wallac 1470 gamma counting; format: cell-based
Target sequence in this assay (Q01726 whole entry): as the sequence (Q01726 whole entry, looked up) above

[13] = target: T3, Melanocyte-stimulating hormone receptor; assay: Agonist activity at human MC1R expressed in HEK293 cells assessed as increase in intracellular cAMP level at 10 uM after 3 mins by luminescence counter relative to Ac-Nle-c[Asp-His-D-Phe-Arg-Trp-Lys]-NH2; format: functional, cell-based
Target sequence in this assay (Q01726 whole entry, looked up): as above

Melanocortin receptor 4 [14] = target: T4, Melanocortin receptor 4; assay: Agonist activity at human MC4R expressed in HEK293 cells assessed as intracellular cAMP accumulation; format: functional, cell-based
Melanocortin receptor 5 [15] = target: T2, Melanocortin receptor 5; assay: Displacement of [125I]-NDP-alpha-MSH from human MC5R expressed in HEK293 cells after 40 mins by Wallac 1470 gamma counting; format: cell-based
Melanocortin receptor 5 [16] = target: T2, Melanocortin receptor 5; assay: Agonist activity at human MC5R expressed in HEK293 cells assessed as intracellular cAMP accumulation; format: functional, cell-based

IC50 (Melanocortin receptor 3 [1]) | Activity (Melanocortin receptor 5 [2]) [%] | Activity (Melanocortin receptor 3 [3]) [%] | Activity [4] [%] | EC50 [5] | Activity (Melanocortin receptor 3 [6]) [%] | Activity (Melanocortin receptor 5 [7]) [%] | Activity (Melanocortin receptor 4 [8]) [%] | EC50 (Melanocortin receptor 3 [9]) | Activity (Melanocortin receptor 4 [10]) [%] | IC50 (Melanocortin receptor 4 [11]) | IC50 [12] | Activity [13] [%] | EC50 (Melanocortin receptor 4 [14]) | IC50 (Melanocortin receptor 5 [15]) | EC50 (Melanocortin receptor 5 [16]) | SMILES
Not Active | 0 | 0 | 0 | Not Active | 0 | 0 | 0 | Not Active | 0 | Not Active | Not Active | 0 | Not Active | Not Active | Not Active | CC(=O)N[C@H]1CC(=O)NCCCC[C@@H](C(N)=O)NC(=O)[C@@H](CCC(N)=O)NC(=O)[C@H](Cc2ccccc2)NC(=O)[C@H](Cc2c[nH]c3ccccc23)NC(=O)[C@H](CCCNC(=N)N)NC1=O (Ac-DRWF[dQ]K-NH2; lactam 1-6)
Not Active | 0 | 0 | 0 | Not Active | 0 | 0 | 0 | Not Active | 0 | Not Active | Not Active | 0 | Not Active | Not Active | Not Active | CC(=O)N[C@H]1CC(=O)NCCCC[C@@H](C(N)=O)NC(=O)[C@@H](CCCNC(=N)N)NC(=O)[C@H](Cc2ccccc2)NC(=O)[C@H](Cc2c[nH]c3ccccc23)NC(=O)[C@H](CCCNC(=N)N)NC1=O (Ac-DRWF[dR]K-NH2; lactam 1-6)
